Test results from ChEMBL document CHEMBL5465560, “Selectivity Literature for EUbOPEN Chemogenomic Library” (2024).
Values belong to the compound of their own block, whether it stands above or below them.

Assays:
[1] = target: T1, Tyrosine-protein kinase ZAP-70 (Homo sapiens) (UniProt P43403); experiment: Selectivity interaction (ProQinase) EUB0000171b ZAP70
T1 sequence (whole entry): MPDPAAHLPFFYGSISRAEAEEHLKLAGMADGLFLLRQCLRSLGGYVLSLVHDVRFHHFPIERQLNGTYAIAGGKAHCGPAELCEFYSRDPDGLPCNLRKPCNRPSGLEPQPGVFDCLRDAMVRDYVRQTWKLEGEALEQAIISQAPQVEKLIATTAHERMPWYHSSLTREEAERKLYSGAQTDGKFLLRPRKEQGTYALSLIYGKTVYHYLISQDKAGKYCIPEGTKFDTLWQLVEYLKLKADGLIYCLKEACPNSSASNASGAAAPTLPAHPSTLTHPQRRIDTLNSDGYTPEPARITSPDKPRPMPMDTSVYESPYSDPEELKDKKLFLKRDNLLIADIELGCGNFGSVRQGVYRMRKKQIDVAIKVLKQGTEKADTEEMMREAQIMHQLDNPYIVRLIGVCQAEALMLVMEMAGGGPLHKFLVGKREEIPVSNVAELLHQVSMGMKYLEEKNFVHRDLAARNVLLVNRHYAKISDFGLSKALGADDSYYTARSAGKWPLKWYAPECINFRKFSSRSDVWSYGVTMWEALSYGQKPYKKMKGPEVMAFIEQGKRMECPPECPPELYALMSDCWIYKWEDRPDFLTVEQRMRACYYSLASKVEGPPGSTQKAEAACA

[2] = target: Serine/threonine-protein kinase PAK 4 (Homo sapiens, UniProt O96013); experiment: Selectivity interaction (Kinase panel (DSF assay)) EUB0001559a PAK4
[3] = target: T2, Mitogen-activated protein kinase kinase kinase 6 (Homo sapiens) (UniProt O95382); experiment: Selectivity interaction (KinomeScan (DiscoverX)) EUB0001079a MAP3K6; settings: at 1 µM
T2 sequence (whole entry): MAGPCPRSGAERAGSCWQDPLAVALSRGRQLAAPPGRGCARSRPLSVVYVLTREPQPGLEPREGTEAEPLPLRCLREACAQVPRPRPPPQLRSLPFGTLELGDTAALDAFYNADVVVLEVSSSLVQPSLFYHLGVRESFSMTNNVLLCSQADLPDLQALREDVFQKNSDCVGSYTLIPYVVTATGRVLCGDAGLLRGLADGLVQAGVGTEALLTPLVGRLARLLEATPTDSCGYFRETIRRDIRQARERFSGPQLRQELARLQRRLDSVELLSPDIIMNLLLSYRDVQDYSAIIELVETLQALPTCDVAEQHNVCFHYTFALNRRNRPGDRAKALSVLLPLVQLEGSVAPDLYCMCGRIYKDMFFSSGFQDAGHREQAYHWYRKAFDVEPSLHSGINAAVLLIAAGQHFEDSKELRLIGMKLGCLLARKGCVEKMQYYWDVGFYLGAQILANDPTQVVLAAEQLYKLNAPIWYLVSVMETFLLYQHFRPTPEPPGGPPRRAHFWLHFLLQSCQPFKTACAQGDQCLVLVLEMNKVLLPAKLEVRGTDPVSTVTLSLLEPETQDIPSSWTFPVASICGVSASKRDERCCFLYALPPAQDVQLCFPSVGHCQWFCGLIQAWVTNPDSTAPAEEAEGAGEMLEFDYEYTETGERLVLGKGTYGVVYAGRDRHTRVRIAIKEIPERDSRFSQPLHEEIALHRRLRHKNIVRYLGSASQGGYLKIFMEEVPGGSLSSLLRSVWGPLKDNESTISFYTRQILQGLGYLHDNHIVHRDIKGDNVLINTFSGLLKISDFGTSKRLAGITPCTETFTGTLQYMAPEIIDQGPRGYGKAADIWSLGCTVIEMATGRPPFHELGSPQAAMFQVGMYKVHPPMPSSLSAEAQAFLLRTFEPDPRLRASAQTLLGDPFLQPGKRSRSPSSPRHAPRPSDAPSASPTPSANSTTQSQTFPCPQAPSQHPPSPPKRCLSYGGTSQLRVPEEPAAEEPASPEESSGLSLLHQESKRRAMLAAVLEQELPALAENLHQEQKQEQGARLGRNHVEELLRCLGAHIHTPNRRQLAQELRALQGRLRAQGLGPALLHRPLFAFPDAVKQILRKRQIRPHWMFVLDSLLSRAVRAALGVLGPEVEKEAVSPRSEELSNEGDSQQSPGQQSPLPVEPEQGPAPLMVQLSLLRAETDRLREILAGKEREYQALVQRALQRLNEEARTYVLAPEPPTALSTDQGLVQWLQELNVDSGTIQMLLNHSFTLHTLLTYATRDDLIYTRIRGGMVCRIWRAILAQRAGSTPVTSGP

[4] = target: T3, Non-receptor tyrosine-protein kinase TNK1 (Homo sapiens) (UniProt Q13470); experiment: Selectivity interaction (Kinase panel (Z-LYTE Assay)) EUB0001632a TNK1; settings: at 10 µM
T3 sequence (whole entry): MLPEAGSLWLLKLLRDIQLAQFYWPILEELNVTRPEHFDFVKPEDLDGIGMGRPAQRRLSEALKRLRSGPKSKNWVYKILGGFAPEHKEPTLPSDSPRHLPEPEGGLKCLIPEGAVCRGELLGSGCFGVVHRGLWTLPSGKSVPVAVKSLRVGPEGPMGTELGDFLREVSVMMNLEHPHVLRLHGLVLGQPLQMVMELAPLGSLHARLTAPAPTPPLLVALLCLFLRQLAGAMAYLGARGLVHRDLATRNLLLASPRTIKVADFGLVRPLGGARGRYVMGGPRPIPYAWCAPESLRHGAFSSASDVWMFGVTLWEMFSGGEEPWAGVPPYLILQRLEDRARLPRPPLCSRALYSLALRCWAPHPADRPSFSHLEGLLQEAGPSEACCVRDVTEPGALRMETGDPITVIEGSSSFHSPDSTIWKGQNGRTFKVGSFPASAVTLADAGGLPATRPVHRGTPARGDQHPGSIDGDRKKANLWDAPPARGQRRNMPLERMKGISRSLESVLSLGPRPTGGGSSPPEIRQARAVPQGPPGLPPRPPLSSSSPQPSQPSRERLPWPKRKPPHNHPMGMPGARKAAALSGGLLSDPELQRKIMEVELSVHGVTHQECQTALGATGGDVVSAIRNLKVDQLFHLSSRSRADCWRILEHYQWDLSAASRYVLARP

[5] = target: Casein kinase II subunit alpha (Homo sapiens, UniProt P68400); experiment: Selectivity interaction (SelectScreen profiling (Invitrogen)) EUB0000607a CSNK2A1; settings: at 2 µM
[6] = target: Phosphatidylinositol 4,5-bisphosphate 3-kinase catalytic subunit alpha isoform (Homo sapiens) (UniProt P42336); settings: at 10 µM
[7] = target: MAP kinase-interacting serine/threonine-protein kinase 2 (Homo sapiens, UniProt Q9HBH9); experiment: Selectivity interaction (Kinase panel (Carna Biosciences)) EUB0001542aTs MKNK2; settings: at 1 µM
[8] = target: Ribosomal protein S6 kinase alpha-1 (Homo sapiens, UniProt Q15418); experiment: Selectivity interaction (KinomeScan (DiscoverX)) EUB0001619a RPS6KA1; settings: at 1 µM
Ribosomal protein S6 kinase alpha-1, sequence (Q15418 whole entry): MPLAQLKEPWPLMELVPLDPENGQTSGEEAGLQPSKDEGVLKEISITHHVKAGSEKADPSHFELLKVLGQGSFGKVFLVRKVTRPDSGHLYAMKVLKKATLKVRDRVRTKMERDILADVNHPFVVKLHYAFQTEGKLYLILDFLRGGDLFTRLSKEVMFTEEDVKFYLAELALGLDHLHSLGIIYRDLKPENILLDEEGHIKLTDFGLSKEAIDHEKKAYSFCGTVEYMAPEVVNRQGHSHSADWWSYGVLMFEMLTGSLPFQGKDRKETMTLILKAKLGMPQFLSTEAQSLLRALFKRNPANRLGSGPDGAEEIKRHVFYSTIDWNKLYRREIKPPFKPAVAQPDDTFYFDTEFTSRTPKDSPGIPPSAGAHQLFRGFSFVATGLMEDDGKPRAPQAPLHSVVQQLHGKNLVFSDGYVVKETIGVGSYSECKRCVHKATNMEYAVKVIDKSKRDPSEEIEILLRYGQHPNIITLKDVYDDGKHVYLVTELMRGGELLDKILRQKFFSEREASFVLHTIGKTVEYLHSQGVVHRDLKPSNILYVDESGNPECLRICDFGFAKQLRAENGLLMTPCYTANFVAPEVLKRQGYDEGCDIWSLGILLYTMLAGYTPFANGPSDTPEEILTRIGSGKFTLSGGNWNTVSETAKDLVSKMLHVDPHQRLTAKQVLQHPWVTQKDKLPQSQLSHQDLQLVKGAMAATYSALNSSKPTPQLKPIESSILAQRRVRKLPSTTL

Serine/threonine-protein kinase PAK 4, sequence (O96013 whole entry, looked up): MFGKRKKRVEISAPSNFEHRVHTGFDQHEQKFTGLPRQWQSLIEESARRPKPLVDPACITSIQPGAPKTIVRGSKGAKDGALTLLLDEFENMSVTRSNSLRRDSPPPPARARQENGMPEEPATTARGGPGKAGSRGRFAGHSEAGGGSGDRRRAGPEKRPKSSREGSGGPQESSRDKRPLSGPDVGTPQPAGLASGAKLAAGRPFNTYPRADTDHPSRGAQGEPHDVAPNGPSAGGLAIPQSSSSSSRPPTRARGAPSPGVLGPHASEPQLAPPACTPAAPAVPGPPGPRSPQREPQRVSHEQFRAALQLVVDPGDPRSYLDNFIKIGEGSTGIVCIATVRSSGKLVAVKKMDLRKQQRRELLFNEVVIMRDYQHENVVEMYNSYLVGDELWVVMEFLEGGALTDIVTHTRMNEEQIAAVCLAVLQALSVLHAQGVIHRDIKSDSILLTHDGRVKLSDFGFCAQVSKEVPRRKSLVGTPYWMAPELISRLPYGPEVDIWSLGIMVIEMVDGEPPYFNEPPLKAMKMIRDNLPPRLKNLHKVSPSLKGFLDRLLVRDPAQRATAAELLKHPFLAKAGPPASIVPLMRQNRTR
Phosphatidylinositol 4,5-bisphosphate 3-kinase catalytic subunit alpha isoform (Homo sapiens), sequence (P42336 whole entry, canonical isoform): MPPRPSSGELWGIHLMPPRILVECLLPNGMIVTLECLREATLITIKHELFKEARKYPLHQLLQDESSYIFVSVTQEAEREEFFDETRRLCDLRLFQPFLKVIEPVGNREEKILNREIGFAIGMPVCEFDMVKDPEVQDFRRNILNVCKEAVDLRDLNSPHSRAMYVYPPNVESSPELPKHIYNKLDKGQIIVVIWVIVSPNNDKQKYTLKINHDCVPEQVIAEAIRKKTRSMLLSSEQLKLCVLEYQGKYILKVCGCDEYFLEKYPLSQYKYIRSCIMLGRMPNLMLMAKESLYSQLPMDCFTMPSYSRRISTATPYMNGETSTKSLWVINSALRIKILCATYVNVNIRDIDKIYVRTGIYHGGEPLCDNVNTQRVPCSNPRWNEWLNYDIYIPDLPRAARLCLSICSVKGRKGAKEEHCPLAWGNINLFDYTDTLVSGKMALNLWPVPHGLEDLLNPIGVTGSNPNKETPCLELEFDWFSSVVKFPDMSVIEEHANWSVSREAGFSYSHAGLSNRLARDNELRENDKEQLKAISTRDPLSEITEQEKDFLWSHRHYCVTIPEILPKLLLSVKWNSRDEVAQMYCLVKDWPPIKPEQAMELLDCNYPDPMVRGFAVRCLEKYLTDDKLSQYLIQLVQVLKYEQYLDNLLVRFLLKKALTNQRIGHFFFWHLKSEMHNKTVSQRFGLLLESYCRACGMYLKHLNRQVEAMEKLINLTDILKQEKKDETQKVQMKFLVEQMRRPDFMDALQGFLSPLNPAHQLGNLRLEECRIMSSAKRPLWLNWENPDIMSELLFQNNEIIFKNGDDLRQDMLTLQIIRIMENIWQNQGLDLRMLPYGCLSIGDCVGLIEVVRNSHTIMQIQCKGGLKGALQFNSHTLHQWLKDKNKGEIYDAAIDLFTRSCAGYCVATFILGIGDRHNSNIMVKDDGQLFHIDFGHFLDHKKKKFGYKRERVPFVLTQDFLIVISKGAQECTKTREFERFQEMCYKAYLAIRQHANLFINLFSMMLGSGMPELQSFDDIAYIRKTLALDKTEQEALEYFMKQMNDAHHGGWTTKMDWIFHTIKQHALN
MAP kinase-interacting serine/threonine-protein kinase 2, sequence (Q9HBH9 whole entry, looked up): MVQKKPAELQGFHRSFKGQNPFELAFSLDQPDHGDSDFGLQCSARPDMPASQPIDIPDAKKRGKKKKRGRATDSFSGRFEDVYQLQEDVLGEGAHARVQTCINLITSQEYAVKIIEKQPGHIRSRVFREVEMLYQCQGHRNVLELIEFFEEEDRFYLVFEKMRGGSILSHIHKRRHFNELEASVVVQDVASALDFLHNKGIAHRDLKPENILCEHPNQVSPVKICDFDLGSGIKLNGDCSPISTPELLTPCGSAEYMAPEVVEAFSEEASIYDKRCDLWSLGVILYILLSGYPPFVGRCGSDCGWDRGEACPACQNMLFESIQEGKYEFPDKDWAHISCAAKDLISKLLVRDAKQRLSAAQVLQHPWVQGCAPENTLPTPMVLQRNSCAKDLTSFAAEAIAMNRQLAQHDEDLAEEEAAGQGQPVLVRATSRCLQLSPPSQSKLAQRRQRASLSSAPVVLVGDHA
Casein kinase II subunit alpha, sequence (P68400 whole entry, looked up, canonical isoform): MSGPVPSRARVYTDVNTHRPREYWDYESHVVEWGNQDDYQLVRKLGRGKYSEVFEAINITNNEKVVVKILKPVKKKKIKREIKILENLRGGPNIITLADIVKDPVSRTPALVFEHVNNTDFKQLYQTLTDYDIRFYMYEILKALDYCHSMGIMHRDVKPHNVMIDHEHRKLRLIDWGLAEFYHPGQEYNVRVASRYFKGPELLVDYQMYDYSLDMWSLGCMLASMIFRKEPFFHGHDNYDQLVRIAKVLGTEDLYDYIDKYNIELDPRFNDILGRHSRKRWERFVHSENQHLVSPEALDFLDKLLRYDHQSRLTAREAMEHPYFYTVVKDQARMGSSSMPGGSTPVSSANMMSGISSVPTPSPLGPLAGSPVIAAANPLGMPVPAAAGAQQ

Compound: Nc1cnc(N2CCc3cc(S(=O)(=O)Nc4c(F)cc(Cl)cc4F)cc(N4CCCC4=O)c32)nc1 [TP-020n]
- % of control [3]: 75%

Compound: CNC(=O)Nc1ccc(-c2nc(N3CC4CCC(C3)O4)c3cnn(C4CCC5(CC4)OCCO5)c3n2)cc1
- % of inhibition [5]: 0%
- % of control [6]: 16%

Compound: N#Cc1cccc(-c2c[nH]c3ncnc(N4CCOCC4)c23)c1
- % of control [8]: 100%

The remaining lines, values ahead:

- % of control ([1]; at 1 µM): 88%
- % of control ([1]; at 5 µM): 93%
Compound: C=CC(=O)Nc1cccc(C(=O)Nc2ccc(Nc3cc(-c4[nH]c(SC)nc4C)ccn3)cc2)c1

- dTM [2]: 0.4 K
Compound: CN(C(=O)c1cnn2cccnc12)c1cc2c(cc1N1CCOCC1)C(=O)N(C[C@@H](F)C(C)(C)O)C2

- % of control [4]: 4.62%
Compound: Cn1cc(-n2cnc3c(NCc4nc5cc(Cl)c(Cl)cc5[nH]4)nc(N4CCOCC4)nc32)cn1

- % of inhibition [7]: 68%
Compound: Cn1cc(Nc2nccc(N3CC4CCC(C3)N4C(=O)[C@@H]3CC3(F)F)n2)cn1
